Data on 4 molecules can be found in patent publication US5753704A, “Therapeutic compositions comprising unsaturated dioic acids or derivatives thereof” (Unichema Chemie B.V., priority 1992, dated 1998).

One test concerns P. ACNES ATCC 25746. Briefly: MIC's for long chain dioic acids against P. acnes (Table 4). The test is classed as cell-based, Propionibacterium acnes. To be noted: for MIC: P. acnes ATCC 25746. The method, then: (§1) The Minimum Inhibitory Concentration (MIC) of each of various unsaturated dicarboxylic acid mixtures was determined in the presence and absence of 10% Intralipid (Kabi Pharmacia, Inc.) using the agar dilution technique for susceptibility of 32 strains of Propionibacterium acnes and of 32 strains of various genera of aerobic bacteria. The method was as set out below.
(§2) A 5% stock solution for each agent was prepared by adding 10 grams of the dioic acid material to 200 milliliters of double strength Tryptic Soy Broth (TSB), (Baltimore Biological Laboratories). The pH of each solution was adjusted to 7.0±0.2 with sodium hydroxide.
(§3) For each organic acid two sets of 200 ml capacity bottle/flasks were numbered 1 to 9. To each bottle was added 50 cc of double strength TSB. From the 5% stock solution, 50 cc of TSB were transferred to bottles #1 and #2. Serial transfers of 50 cc are made from bottle #2 through to bottle #8. Bottle #9 of each set contained only 50 cc of double strength TSB, without any dicarboxylic acid. To all 18 bottles were added 2 grams of granulated agar (BBL).
(§4) All bottles were autoclaved at 121° C., 15 psi for 15 minutes and then held at 50° C. in a water bath.
(§5) To one set of bottles #1-9 were added 50 cc of hot, sterile water. The bottles were swirled to mix the contents and 25 cc was poured into each of four petri dishes and allowed to solidify. To the second set of bottles were added 50 cc of Intralipid (pre-warmed to 50° C). The contents were then mixed and poured as above. Standard inocula of the test organisms were prepared by matching the bacterial suspension in 0.85% PSS (physiological saline solution) to a 0.5 McFarland Standard and diluting ten-fold to yield 10^7 CFU (colony forming units). The inocula were loaded into 32 wells of a steers replicator. The multi-prong inoculator delivers 0.001 to 0.002 cc resulting in a final inoculum of 10^4 CFU per spot.
Plates were inoculated from the lowest to highest concentration (to reduce the effects of "carry-over" of the inoculum), and allowed to dry. The plates were then inverted and incubated at 35° C. for 24 hours. […]
(§6) The agent-free control plates (#9) were examined at the end of the incubation for viability and signs of contamination. End-point MIC values were determined by observing the plate of lowest concentration of agent that inhibited visible micro-organism growth.
A similar experiment was performed, using the same method, to compare the degree of inhibitory activity (for P. acnes) of azelaic acid, the C18:1 dioic acid (obtained from a substrate comprising oleic acid), a mixture of C18.1 fatty (mono-carboxylic) acid, the corresponding C18:1 and C18:2 dioic acids (obtained from a substrate comprising Linoleic acid), and the C16:1 dioic acid (obtained from a substrate comprising palmitoleic acid). The MICs for azelaic acid and the C18.1 dioic acid were essentially as before, confirming the previous results. The corresponding fatty acid had very little activity.
In experiment 4, the degree of inhibition of the azelaic acid control, and therefore of the test samples also, was slightly less than that observed in previous experiments.

In another test the test system is Candida albicans. Briefly: MIC, agar dilution technique (Table 3). The test is classed as cell-based. To be noted: Candida albicans ATCC 18804. Background: In agar dilution the substance is mixed into plates at graded concentrations.
The subject of a further test is Staphylococcus aureus. In words: MIC, agar dilution technique (Table 3). The test is classed as cell-based. On the procedure:
as §1, §2, §3, §4, §5
(§7) Plates were inoculated from the lowest to highest concentration (to reduce the effects of "carry-over" of the inoculum), and allowed to dry. The plates were then inverted and incubated at 35° C. for 24 hours. Plates inoculated with Propionibacterium acnes strains were incubated under anaerobic conditions for seven days at 35° C.
as §6

Test [1] has as its system Brevibacterium epidermidis. Briefly: MIC, agar dilution technique (Table 3). The test is classed as cell-based. The method, then:
as §1, §2, §3, §4, §5, §7, §6

Test [2] concerns Corynebacterium minutissium. Briefly: MIC, agar dilution technique (Table 3). The test is classed as cell-based. The method, then: as §1, §2, §3, §4, §5, §7, §6
Another test has as its system Pseudomonas aeruginosa. In words: MIC, agar dilution technique (Table 3). The test is classed as cell-based. To be noted: Pseudomonas aeruginosa ATCC 27853. The method, then: as §1, §2, §3, §4, §5, §7, §6
Another test relates to Micrococcus luteus. Briefly: MIC, agar dilution technique (Table 3). The test is classed as cell-based. The method, then:
as §1, §2, §3, §4, §5, §7, §6

In a further test the test system is Escherichia coli. In words: MIC, agar dilution technique (Table 3). To be noted: Escherichia coli ATCC 25922. The test is classed as cell-based. On the procedure:
as §1, §2, §3, §4, §5, §7, §6

Test [3] has as its system Staphylococcus epidermidis. In words: MIC, agar dilution technique (Table 3). The test is classed as cell-based. On the procedure:
as §1, §2, §3, §4, §5, §7, §6

The test system of another test is Propionibacterium acnes. Briefly: MIC, agar dilution technique (Table 3). Type of test: cell-based. On the procedure: as §1, §2, §3, §4, §5, §7, §6
Another test has as its system Micrococcus sedentarius. In words: MIC, agar dilution technique (Table 3). Type of test: cell-based. To be noted: Micrococcus sedentarius ATCC 27574. The method, then: as §1, §2, §3, §4, §5, §7, §6
In another test the test system is thioredoxin reductase. To be noted: cited from earlier work.
The test system of test [4] is 32 strains of Propionibacterium acnes and 32 strains of various genera of aerobic bacteria. In words: Antimicrobial activity, summary over the range of micro-organisms. The test is classed as cell-based. On the procedure:
as §1, §2
For each organic acid two sets of 200 ml capacity bottle/flasks were numbered 1 to 9. To each bottle was added 50 cc of double strength TSB. From the 5% stock solution, 50 cc of TSB were transferred to bottles #1 and #2. Serial transfers of 50 cc are made from bottle #2 through to bottle #8. Bottle #9 of each set contained only 50 cc of double strength TSB, without any dicarboxylic acid. To all 18 bottles were added 2 grams of granulated agar (BBL). […]
The agent-free control plates (#9) were examined at the end of the incubation for viability and signs of contamination. End-point MIC values were determined by observing the plate of lowest concentration of agent that inhibited visible micro-organism growth. […]

[5] abbreviates: Staphylococcus aureus ATCC 25923.
[6] abbreviates: Staphylococcus aureus ATCC 29213.
The mark [7] stands for this setting: Staphylococcus aureus ATCC 35556.
Where [8] appears, read: Brevibacterium epidermidis ATCC 35514.
Where [9] appears, read: Brevibacterium epidermidis NCDO 2285.
Setting [10] is: Corynebacterium minutissium ATCC 23347.
Setting [11] is: Corynebacterium minutissium ATCC 23348.
Where [12] appears, read: Corynebacterium minutissium ATCC 23349.
[13] abbreviates: Staphylococcus epidermidis ATCC 14490.
Where [14] appears, read: Staphylococcus epidermidis ATCC 31432.
Where [15] appears, read: Staphylococcus epidermidis ATCC 35894.
Where [16] appears, read: Propionibacterium acnes ATCC 6919.
Setting [17] is: Propionibacterium acnes ATCC 29399.
Setting [18] is: Expt. 4, increased incubation period of 18 days.

Entries after “also recorded” stand apart in the source; their conditions may differ.

For `CCCCCCCC/C=C\CCCCCCCC(=O)O` [C18:1 Fatty acid, oleic acid, reference compound], the “inhibitory activity compared with azelaic acid” value in the test on P. ACNES ATCC 25746 (P. acnes) is “less active than azelaic acid”. For the same molecule, the MIC with P. ACNES ATCC 25746 (Expt. 3, incubation 7 days) is recorded as greater than 5%.

With `O=C(O)CCCCCCCC(=O)O` [Azelaic acid, azelaic acid, reference compound], the MIC is reported as greater than 2.5% with Candida albicans; 2.5% against Staphylococcus aureus (setting [5]); 2.5% in the test with Staphylococcus aureus (setting [6]); 2.5% against Staphylococcus aureus (setting [7]); greater than 2.5% in test [1] (setting [8]); greater than 2.5% in [1] (setting [9]). The MIC (in test [2] (setting [10]); in test [2] (setting [11]); in [2] (setting [12]); against Pseudomonas aeruginosa; against Micrococcus luteus (Micrococcus luteus ATCC 9341); against Micrococcus luteus (Micrococcus luteus ATCC 15957)) was greater than 2.5% throughout. For the same molecule, the MIC against Micrococcus luteus (Micrococcus luteus ATCC 27141) is 2.5%; against Escherichia coli it was 2.5%; in test [3] (setting [13]), greater than 2.5%; in test [3] (setting [14]) it was greater than 2.5%; in test [3] (setting [15]) it was greater than 2.5%; with Propionibacterium acnes (setting [16]), 1.25%. Further, the MIC is reported as 1.25% against Propionibacterium acnes (setting [17]); 2.5% against Micrococcus sedentarius; 5% against P. ACNES ATCC 25746 (Expt. 1, incubation 7 days); 5% in the test with P. ACNES ATCC 25746 (Expt. 2, incubation 7 days); 5% against P. ACNES ATCC 25746 (Expt. 3, incubation 7 days); greater than 5% against P. ACNES ATCC 25746 (setting [18]). The “inhibition of thioredoxin reductase” value in the test with thioredoxin reductase is recorded as “inhibits thioredoxin reductase”.

Consider `O=C(O)CCCCCCC/C=C\CCCCCCCC(=O)O` [C18:1 dioic acid ex Oleic acid], for which the MIC is greater than 2.5% against Candida albicans; greater than 2.5% in the test on Candida albicans (+ "Intralipid"); 0.07% against Staphylococcus aureus (setting [5]); 0.15% in the test on Staphylococcus aureus (Staphylococcus aureus ATCC 25923, + "Intralipid"); 0.15% against Staphylococcus aureus (setting [6]); 0.31% in the test on Staphylococcus aureus (Staphylococcus aureus ATCC 29213, + "Intralipid"). Moreover, the MIC is reported as 0.07% against Staphylococcus aureus (setting [7]); 0.31% with Staphylococcus aureus (Staphylococcus aureus ATCC 35556, + "Intralipid"); 0.15% in [1] (setting [8]); 0.15% in test [1] (Brevibacterium epidermidis ATCC 35514, + "Intralipid"); 0.15% in test [1] (setting [9]); 0.15% in [1] (Brevibacterium epidermidis NCDO 2285, + "Intralipid"). The MIC in [2] (setting [10]) was determined as 0.15%; in test [2] (Corynebacterium minutissium ATCC 23347, + "Intralipid") it was 0.15%; in test [2] (setting [11]), 0.15%; in [2] (Corynebacterium minutissium ATCC 23348, + "Intralipid"), 0.15%; in [2] (setting [12]), 0.15%; in test [2] (Corynebacterium minutissium ATCC 23349, + "Intralipid"), 0.15%. In addition, the MIC is given as greater than 2.5% with Pseudomonas aeruginosa; greater than 2.5% in the test with Pseudomonas aeruginosa (+ "Intralipid"); 0.15% against Micrococcus luteus (Micrococcus luteus ATCC 9341); 0.07% in the test with Micrococcus luteus (Micrococcus luteus ATCC 9341, + "Intralipid"); 0.15% in the test with Micrococcus luteus (Micrococcus luteus ATCC 15957); 0.07% in the test with Micrococcus luteus (Micrococcus luteus ATCC 15957, + "Intralipid"). Also, the MIC in the test on Micrococcus luteus (Micrococcus luteus ATCC 27141) was 0.15%; in the test with Micrococcus luteus (Micrococcus luteus ATCC 27141, + "Intralipid") it was 0.07%; in the test on Escherichia coli, greater than 2.5%; in the test with Escherichia coli (+ "Intralipid"), greater than 2.5%; in [3] (setting [13]), 0.31%; in test [3] (Staphylococcus epidermidis ATCC 14490, + "Intralipid"), 0.31%. Also, the MIC is recorded as 0.31% in test [3] (setting [14]); 0.31% in test [3] (Staphylococcus epidermidis ATCC 31432, + "Intralipid"); 0.31% in [3] (setting [15]); 0.31% in test [3] (Staphylococcus epidermidis ATCC 35894, + "Intralipid"); 0.04% against Propionibacterium acnes (setting [16]); 0.02% in the test on Propionibacterium acnes (Propionibacterium acnes ATCC 6919, + "Intralipid"). Further, the MIC in the test with Propionibacterium acnes (setting [17]) came out at 0.04%; with Propionibacterium acnes (Propionibacterium acnes ATCC 29399, + "Intralipid"), 0.02%; with Micrococcus sedentarius, 0.15%; in the test on Micrococcus sedentarius (+ "Intralipid") it was 0.07%; in the test on P. ACNES ATCC 25746 (Expt. 1, incubation 7 days), 0.04%; with P. ACNES ATCC 25746 (Expt. 2, incubation 7 days), 0.04%. In addition, the MIC in the test with P. ACNES ATCC 25746 (Expt. 3, incubation 7 days) amounted to 0.04%; in the test with P. ACNES ATCC 25746 (setting [18]) it was 0.08%. In test [4] (10% Intralipid, listed as C18:1 mono-unsaturated compound), the “effect of the presence or absence of "Intralipid" on MIC” value was “increased the MIC for taph. aureus; also recorded: decreased the MIC for P. acnes and M. luteus”. Also, the “anti-microbial activity compared with azelaic acid” value in test [4] (Table 3 micro-organisms) is “many times greater than that for azelaic acid”. The “activity relative to azelaic acid” value with P. ACNES ATCC 25746 (P. acnes, fold of the activity of azelaic acid) is recorded as roughly 100 ×.

In the test on P. ACNES ATCC 25746 (setting [18]), `O=C(O)CCCCCC=CCCCCCCCC(=O)O` [C16:1 dioic acid ex Palmitoleic acid] came in with an MIC of 0.16%.
